Assays:
neuro-2a (N2a) cells = assay: Neurite outgrowth assay; type: cell-based, mouse; conditions: 72 h, vehicle 14.22 ± 2.9%
SIRT2 [1] = target: T1, SIRT2 (Homo sapiens, UniProt Q8IXJ6); assay: SIRT2 substrate competition analysis and time-dependent inhibition; type: biochemical; set-up: purchased Biomol / Enzo Life Sciences (Fluor de Lys kit AK-556) BML SE-251-0500
T1 sequence (Q8IXJ6 1-389): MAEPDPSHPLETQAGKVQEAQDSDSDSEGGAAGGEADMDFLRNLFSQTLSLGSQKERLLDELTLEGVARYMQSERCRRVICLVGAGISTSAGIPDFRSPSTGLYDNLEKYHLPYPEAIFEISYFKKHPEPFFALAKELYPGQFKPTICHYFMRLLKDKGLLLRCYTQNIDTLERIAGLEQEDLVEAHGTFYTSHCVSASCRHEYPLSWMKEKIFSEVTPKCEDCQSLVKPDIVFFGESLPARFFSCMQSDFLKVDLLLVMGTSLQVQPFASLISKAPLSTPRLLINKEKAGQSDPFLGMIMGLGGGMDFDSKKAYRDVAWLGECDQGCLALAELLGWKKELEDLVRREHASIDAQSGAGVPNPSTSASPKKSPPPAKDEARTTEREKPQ
Experimental: added to the blank wells). […] Thereafter, […]
which three independent curves were generated. […]
added to the blank wells).
The results were plotted using GraFit 7.0.3.
SIRT2 substrate competition analysis for 36
The assay follows in general the same procedure reported for the SIRT2 assay (vide supra), except for the following changes: reaction time = 45 min; [NAD+] = 2 mM; [substrate] = 50, 80, 150, or […]
Mass spectrometric detection of the ADP-ribose conjugate
Reactions were conducted for 5 min at 37 °C in 5 μL containing 1.9 μM SIRT2 (SignalChem), 500 μM NAD+ or 6-AE-NAD+ (BIOLOG Life Science Institute), and 1 mM 36, as well as 40 mM sodium phosphate buffer (pH = 7.0), containing 240 mM NaCl, 120 mM imidazole, 0.08 mM PMSF, 0.2 mM DTT, 20% glycerol, and 2% DMSO. Controls were measured in the absence of compounds or the enzyme. The reaction mixtures were diluted with 5 μL of water and purified using ZipTip-μC18 (Millipore). The fraction eluted with 2 μL of 50% acetonitrile containing α-cyano-4-hydroxycinnamic acid at a concentration of 5 mg/mL was directly subjected to MALDI-TOF MS analysis. MALDI-TOF mass spectra were acquired on an AB SCIEX TOF/TOF™ 5800 (AB SCIEX) in reflectron […]

SIRT2 [2] = target: T1, SIRT2; assay: Fluor de Lys SIRT2 assay
H3K9Ac (SIRT1 substrate) = assay: Western blot of H3K9Ac in MDA-MB-231 cells; type: cell-based, human; conditions: 6 h
Experimental: MCF-7 and MDA-MB-231 cells were plated in 96-well plates (initial density: 1 × 10^3 cells per well) and incubated at 37 °C. After 24 h, test compound solutions (50 μL/well) of varying concentrations in medium (DMEM and Leibovitz's L-15 for MCF-7 and MDA-MB-231 cells respectively) for were added to the cells at 37 °C under 5% CO2 in air and left to react for 72 h. Thereafter, the mixtures were treated with 10 μL of AlamarBlue® (AbD Serotec, #BUF012A), incubation was continued at 37 °C for 3 h. The fluorescence in each well was measured with an ARVOTM X3 microplate reader (λex = 540 nm; λem = 590 nm). With the obtained fluorescence readings, it was possible to calculate the percentage of cell growth.
MDA-MB-231 cells (5 × 10^5 cells/2 mL/dish) were treated for 6 h with the test compounds at the indicated concentrations in the cell culture medium, before the cells were collected and extracted with SDS buffer. The protein concentrations of the lysates were determined using a BCA protein assay.
Equivalent amounts of protein from each lysate were resolved in 5–20% SDS-polyacrylamide gels and transferred onto PVDF membranes. […]
For the differentiation study, the medium was changed to DMEM supplemented with 2% FBS. After incubation with or without 36 for 72 h, the cell morphology was examined using a microscope (Olympus CKX41) and further analyzed with the Photomeasure software (Kenis Ltd.). […]

time dependence of SIRT2 inhibitory effect (SIRT2 [1]; incubation 0–120 min with SIRT2, acetylated substrate, NAD+): time-dependent
IC50 (SIRT2 [2]): 55 ± 3.5 nM
inhibition at 1 µM (SIRT2 [2]; read-out: % inhibition at 1 μM SIRT2): 100 ± 3.4%
SIRT1 [IC50]/SIRT2 [IC50] (SIRT2 [2]; selectivity ratio): 28.4
SIRT3 [IC50]/SIRT2 [IC50] (SIRT2 [2]; selectivity ratio): 172.5
Compound: C[C@H](NC(=O)[C@H](CCCCNC(=S)CNC(=O)c1ccccc1Nc1cccc(OCCc2ccccc2)c1)NC(=O)OCc1ccccc1)C(N)=O [Compound 36]
percentage of differentiated cells (neuro-2a (N2a) cells; 0.5 μM): 23.09 ± 3.21%
percentage of differentiated cells (neuro-2a (N2a) cells; 1 μM): 25.73 ± 1.3%
mode of SIRT2 inhibition (substrate competition analysis) (SIRT2 [1]; Lineweaver–Burk plot, NAD+ saturation): competitive inhibition with the acetylated lysine substrate
H3K9Ac level (western blot) (H3K9Ac (SIRT1 substrate)): did not upregulate

From publication PMC5628579, “Potent mechanism-based sirtuin-2-selective inhibition by an in situ-generated occupant of the substrate-binding site, “selectivity pocket” and NAD^+-binding site” (Chemical Science, 2017)
